PMC10600239, “Selective MCL-1 inhibitor ABBV-467 is efficacious in tumor models but is associated with cardiac troponin increases in patients” (Communications Medicine, 2023)

Experiments:
[1] = molecular target: T1, dog MCL1 (Canis lupus familiaris, UniProt Q8HYS5); experiment: TR-FRET binding assay, MCL-1 orthologs; settings: read-out: Ki, canine MCL-1
T1 construct: rhesus monkey (iso4, NM_001 1089 3 7, AA 171-327), dog (NM_001 0030 16, AA17 1- 327); made in house; host or cells: E. coli BL21(DE3)-T1R
Procedure: (§1) Binding affinities for MCL-1, BCL-2, BCL-XL, BCL-W, and BCL2-A1 were determined using a time-resolved fluorescence resonance energy transfer (FRET) assay. Test compounds were serially diluted in DMSO starting at […] (20× starting concentration; 100% DMSO followed by a 1:10 dilution of the compound DMSO plate into assay buffer); 10 µL of the compound in 10% DMSO was then transferred into a 384-well plate (low-volume Corning #3673 assay plate). Glutathione S-transferase (GST)-tagged recombinant BCL-2, BCL-XL, MCL-1, BCL-W, or BCL2-A1 protein (1 nM each) were mixed with 100 nM Oregon Green™-labeled f-BAK peptide probe and 1 nM Tb-labeled anti-GST antibody were mixed. Then 10 µL of a 2× protein/probe/antibody mix was added to each well of increasing concentrations of test compound in assay buffer (20 mM potassium phosphate, pH 7.6, 50 mM NaCl, 1 mM ethylenediaminetetraacetic acid disodium salt dihydrate, 0.05% pluronic acid F-68, 1 mM DL-dithiothreitol) at room temperature (final concentrations listed in Supplementary Table S2). The samples were then mixed on a shaker for 1 min and incubated for an additional 1 h at room temperature. For each assay plate, a probe/antibody and protein/antibody/probe mixture were included as a negative and a positive control, respectively. Fluorescence was measured on the EnVision™ (Perkin Elmer) using a 340/35-nm excitation filter and 520/525- (F-Bak) and 495/510-nm (Tb-labeled anti-glutathione S-transferase [GST] antibody) emission filters. Dissociation constants were determined using Wang’s equation[35]. The time-resolved FRET assay can be performed in the presence of varying concentrations of human serum to determine apparent half-maximal inhibitory concentration after serum protein binding.
(§2) Supplementary Table S10: MCL-1 ortholog information and ABBV-467 affinity across species […]
(§3) Mouse Mus musculus Rattus Canis lupus Macaca sp.
(§4) Protein name Mcl1 Mcl1 M CL1 M CL1 […]
(§5) Amino acid sequence homology determined with NCBI BLAST (http://blast.ncbi.nlm.nih.gov). […]

[2] = molecular target: T2, mouse Mcl1 (Mus musculus, UniProt P97287); experiment: TR-FRET binding assay, MCL-1 orthologs
T2 construct: made in house; host or cells: E. coli BL21(DE3)-T1R
Procedure: as §1, §2, §3, §4, §5

[3] = molecular target: T3, rat Mcl1 (Rattus norvegicus, UniProt Q9Z1P3); experiment: TR-FRET binding assay, MCL-1 orthologs
T3 construct: made in house; host or cells: E. coli BL21(DE3)-T1R
Procedure: as §1, §2, §3, §4, §5

[4] = molecular target: hERG (Homo sapiens, UniProt Q12809); experiment: hERG current, in vitro; assay type: cell-based; settings: read-out: hERG tail current IC50
Procedure: Supplementary Table S6: Maj or findings in safety pharmac ology cardiovascular studies c onduc ted with ABBV- […]
Species/Strain Route of Concentrations Sex and N Results
Administration or Doses per Group […]
Anesthetized IV 1, 3, and Male No effects up to a plasma concentration dog 10 m g/ k gN=4 o f 16 .83 µg/mL on […]
aged 8-12 months • Heart rate
• Systemic vascular resistance
At 67 .23 mg/m L, an increase in heart rate and decrease in systemic vascular
Conscious IV 0, 0.3, 1, and Male No effects on blood pressure, heart dog 3 mg/kg N=5–6a rate, or ECG parameters at any dose beagle (plasma concentration of 6.53 µg/mL at (aged 8-12 months 3-m g/ k g do s e )
ECG, electrocardiogram; IC50, half maximal inhibitory concentration; IV, intravenous; QTcV, QT interval correct ed accor ding to the Van de Water formula. No animals or data were excl uded from analysis . Studies were approved by the animal use committee of Abbvie, Lake County, IL. Healthy dogs, as determined by veterinary physical examination and clinical pathology, were selected for study based on availability without explicit randomization. Conscious dog telemetry utiliz ed a Latin square design to randomize for dose order e ff ects. The same 6 dogs received all d oses. Power analysis has shown a group size of 6 can statistically detect an approximately 20 % alteration in measured parameters w ith α =0.0 5. […]

T2 sequence (P97287 152-308): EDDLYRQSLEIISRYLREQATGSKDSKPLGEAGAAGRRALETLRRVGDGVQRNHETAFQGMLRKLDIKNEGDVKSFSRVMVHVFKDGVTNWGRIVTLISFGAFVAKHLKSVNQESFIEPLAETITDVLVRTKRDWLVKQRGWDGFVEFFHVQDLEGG
T1 sequence (Q8HYS5 171-327): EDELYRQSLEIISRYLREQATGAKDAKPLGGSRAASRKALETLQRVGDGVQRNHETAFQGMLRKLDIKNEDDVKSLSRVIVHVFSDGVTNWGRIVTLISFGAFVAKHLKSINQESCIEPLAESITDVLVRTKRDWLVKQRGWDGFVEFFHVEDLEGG
Chain of hERG (Q12809 whole entry): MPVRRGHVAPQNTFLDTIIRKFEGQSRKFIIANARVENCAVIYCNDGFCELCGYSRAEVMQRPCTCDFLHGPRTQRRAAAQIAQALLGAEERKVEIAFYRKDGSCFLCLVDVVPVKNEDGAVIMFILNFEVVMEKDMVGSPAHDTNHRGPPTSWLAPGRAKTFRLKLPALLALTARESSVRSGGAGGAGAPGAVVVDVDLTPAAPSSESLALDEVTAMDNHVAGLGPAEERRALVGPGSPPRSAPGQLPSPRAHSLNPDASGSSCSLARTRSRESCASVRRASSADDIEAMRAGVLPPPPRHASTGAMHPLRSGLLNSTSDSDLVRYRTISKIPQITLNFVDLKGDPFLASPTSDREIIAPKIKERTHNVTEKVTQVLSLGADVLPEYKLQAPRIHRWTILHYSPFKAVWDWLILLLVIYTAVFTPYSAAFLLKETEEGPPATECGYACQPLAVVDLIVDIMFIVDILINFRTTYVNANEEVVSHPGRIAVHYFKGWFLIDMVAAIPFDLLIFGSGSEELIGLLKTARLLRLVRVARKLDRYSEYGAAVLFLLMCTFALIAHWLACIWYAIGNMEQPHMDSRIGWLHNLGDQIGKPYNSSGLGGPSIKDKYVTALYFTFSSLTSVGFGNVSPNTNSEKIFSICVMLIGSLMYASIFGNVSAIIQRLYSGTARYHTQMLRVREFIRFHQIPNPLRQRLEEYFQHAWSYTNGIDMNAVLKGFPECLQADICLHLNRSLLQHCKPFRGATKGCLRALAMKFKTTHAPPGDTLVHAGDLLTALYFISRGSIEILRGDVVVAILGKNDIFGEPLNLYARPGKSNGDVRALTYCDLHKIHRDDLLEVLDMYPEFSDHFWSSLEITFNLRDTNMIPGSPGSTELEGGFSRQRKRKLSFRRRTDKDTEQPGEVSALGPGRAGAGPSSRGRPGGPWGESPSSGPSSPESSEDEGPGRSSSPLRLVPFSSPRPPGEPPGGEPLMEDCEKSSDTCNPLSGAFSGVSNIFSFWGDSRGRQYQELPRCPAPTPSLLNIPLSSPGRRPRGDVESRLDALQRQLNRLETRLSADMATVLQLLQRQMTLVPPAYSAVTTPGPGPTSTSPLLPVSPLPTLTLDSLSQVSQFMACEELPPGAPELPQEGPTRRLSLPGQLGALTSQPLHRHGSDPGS
T3 sequence (Q9Z1P3 151-307): as the sequence (P97287 152-308) above, with E1D, D3E, S26A, G71D, V81T, V111I, F116C, T123S counted along it

For `Cc1c(Cl)c2c(Cl)c(C)c1-c1c(-c3ccc(F)cc3)sc3ncnc(c13)O[C@@H](C(=O)O)Cc1cc(ccc1OCc1ccnc(-c3ccc(OC[C@H]4COCCO4)cc3)n1)OC[C@@H](CN1CCN(C)CC1)O2` [ABBV-467], the Ki [1] was less than 0.1 nM, the “affinity for the murine mcl1” value [2] was “substantially reduced affinity” and the Ki [3] was less than 0.1 nM. The IC50 [4] was greater than 20.3 µg/mL.
